Data set [1] deals with T1, mouse GOAT (Mus musculus, UniProt P0C7A3).
T1 construct: made in house; host or cells: sf9 insect cells (baculovirus, pFastBac1-mouseGOAT); total membrane fraction, not purified
T1 sequence (P0C7A3 1-435): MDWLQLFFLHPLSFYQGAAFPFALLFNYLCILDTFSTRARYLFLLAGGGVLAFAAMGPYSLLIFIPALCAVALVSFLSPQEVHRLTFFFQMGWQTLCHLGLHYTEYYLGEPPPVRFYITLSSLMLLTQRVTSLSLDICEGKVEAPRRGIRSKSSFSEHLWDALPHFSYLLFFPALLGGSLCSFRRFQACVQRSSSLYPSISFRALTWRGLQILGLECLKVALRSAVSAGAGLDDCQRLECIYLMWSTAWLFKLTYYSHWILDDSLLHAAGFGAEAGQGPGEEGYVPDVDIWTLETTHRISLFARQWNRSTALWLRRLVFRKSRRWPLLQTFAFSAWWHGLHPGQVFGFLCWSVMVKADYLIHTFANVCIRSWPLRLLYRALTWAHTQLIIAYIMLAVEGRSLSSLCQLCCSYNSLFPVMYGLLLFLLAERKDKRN
In words: Acyltransferase assay: inhibition of proghrelin octanoylation by GOAT in sf9 membrane fractions. It is filed as biochemical. Conditions: for GOAT inhibition in vitro (in words): membrane fractions; for IC50: read-out: IC50 (GOAT, membrane fraction, in-house). The procedure: pFastBac1-mouseGOAT and pGEX-GST-proGhrelin8His plasmid encoding for mouse proghrelin, fused to GST with TEV cleavage site to release proghrelin moiety, was a kind gift from the Brown and Goldstein laboratory. The BL21Gold E. coli chemically competent cells were transformed with the pGEX-GST-proGhrelin8His plasmid and selected on agar plates with ampicillin. A few colonies were used to inoculate 50 mL LB, and cultures were grown overnight at 37 °C. The next morning, 10 mL of overnight culture was used to inoculate 1L LB. A total of 4 flasks with 1L LB each were inoculated with 10 mL of the overnight culture, and bacterial cultures were grown at 37 °C until they reached OD600 ~ 0.6. The cultures were chilled on ice for 30 min and then 0.25 mM of IPTG was added to each culture. The cultures were then moved back to a shaker set to 18 °C and incubated overnight. Cells were harvested and resuspended in 200 mL buffer containing 25 mM Tris-HCl pH 8.0, 150 mM NaCl, 1 mM EDTA and 0.5 mg/mL lysozyme. The cell suspension was sonicated, and cell debris was removed by centrifugation. The soluble fraction was passed through glutathione resin by gravity. The resin was washed with 75 mL of lysis buffer without lysozyme. The GST-proGhrelin8His protein was eluted with lysis buffer without lysozyme, supplemented with 15 mM reduced glutathione, GSH. About 50 mg of target protein, as evaluated by SDS-PAGE, was eluted. The eluate was supplemented with 1 mM DTT and about 7.5 mg of recombinant GST-TEV protease (see below) was added. The solution was incubated at 16 °C overnight to allow complete release of proghrelin8His from GST. Prior to Ni-NTA chromatography, 5 mM CaCl2 was added, and the solution was spun down at 4000× g for 10 min. After elution from Ni-NTA resin, protein solution was dialyzed against buffer containing 10 mM Tris-HCl pH 8.5, 50 mM NaCl, 10% glycerol and 0.01% CHAPS using 3 kDa cutoff membrane with 3 buffer exchanges. The protein was quantified by absorbance at A280 and qualified by SDS-PAGE.
The baculovirus expression of mouse GOAT. DH10Bac E. coli strain (ThermoFisher, Waltham, MA, USA) was transformed with pFastBac1-mouseGOAT plasmid, and Bacmid DNA from 12 white colonies was analyzed by DNA sequencing and PCR reaction. All clones were transfected to sf9 cells and level of mGOAT expression was compared between clones from cells producing P2. The clone with the highest mGOAT expression level was used to produce P3. For membrane isolation, sf9 cells were seeded at 2–4 × 10^6 /mL in total 1 L volume of sf-900 serum-free medium (ThermoFisher) and infected with P3 virus. At day 2 post-infection, cells were harvested and resuspended in 40 mL of buffer containing 50 mM NaPi pH 7.2, 150 mM NaCl, 1 mM EDTA, 100 μM bis (4-nitrophenyl) phosphate, 2.5 μg/mL aprotinin, 10 μg/mL leupeptin, 10 μg/mL pepstatin A. Cell suspension was briefly sonicated and cell debris was removed by centrifugation at 3000× g for 10 min. Membrane fraction was collected from supernatant by centrifugation at 100,000× g for 1 h. Membrane pellet was resuspended in storage buffer (50 mM NaPi pH 7.2, 150 mM NaCl and 10% glycerol) and kept at −80 °C. Acyltransferase assay: The assay conditions included per 50 μL reaction: 50 μg of total sf9 membranes, various (for modality experiment) or fixed (for IC50) concentrations of recombinant proghrelin8His peptide and various concentrations of tested compound (for IC50), 100 μM palmitoyl CoA, 50 mM HEPES pH 7.0 and 1 μM [^3H] octanoyl CoA (~5.5 dpm/fmol—American Radioactive Chemicals). After incubation of the reaction mixture at 37C for 10 min, tubes were placed on ice and 10 μL of 1M HCl was added to each tube. Following the addition of 740 μL of cold quench buffer (50 mM NaPi pH 7.4, 10 mM Imidazole, 150 mM NaCl, 100 μM bis (4-nitrophenyl) phosphate, 1 mM phenylmethylsulfonyl fluoride and 0.1% Triton), 0.2 mL of 50% Ni-NTA slurry was added to each reaction. […]

The subject of data set [2] is GOAT. Conditions: cited from earlier work.
Data set [3] is described as follows: Pharmacokinetics in mice. It is filed as in vivo.
The mark [4] stands for this setting: sf9 membranes containing mouse GOAT, [3H]octanoyl CoA, proghrelin8His.

Where a SMILES comes first, the peptide text is derived from it. Where no end group is shown, it is not given here. [ ]: non-standard residue; d: D form. The star is where a group is joined. Tle = CC(C)(C)[C@H](N)C(=O)O; Octanoyl = CCCCCCCC(=O)*; Dap = NC[C@H](N)C(=O)O; Sar = CNCC(=O)O

Consider `CCCCCCCC(=O)NC[C@H](NC(=O)[C@@H](NC(=O)CNC)C(C)(C)C)C(N)=O` [compound 12] (H-[Sar]-[Tle]-[Dap](Octanoyl)-NH2), for which the “GOAT inhibition in vitro (in words)” value in data set [1] is “inactive”. In addition, the IC50 in data set [1] (setting [4]) was above 1000 nM.
As for `CCCCCCCC(=O)NC[C@H](NC(=O)[C@@H](NC(=O)CNC)C(C)(C)C)C(=O)N[C@@H](Cc1ccccc1)C(=O)N[C@@H](CC(C)C)C(=O)N[C@@H](CO)C(=O)N1CCC[C@H]1C(N)=O` [compound 15] (H-[Sar][Tle][Dap](Octanoyl)FLSP-NH2), in data set [1] (setting [4]), the half-inhibitory concentration (IC50) was found to be 96 nM.
In the case of “1: GOAT reaction product, acyl ghrelin, 28-residue lipopeptide octanoylated at Ser3 (GSS(Octanoyl)FLSPEHQRVQQRKESKKPPAKLQPR; UniProt Q9UBU3 24-51, looked up) [compound 1]”, the “GOAT inhibition (in words)” value in data set [2] is reported as “weakly inhibited”.
Regarding `CCCCCCCC(=O)NC[C@H](NC(=O)[C@@H](NC(=O)CNC)C(C)(C)C)C(=O)N[C@@H](Cc1ccccc1)C(=O)N[C@@H](CC(C)C)C(N)=O` [compound 13] (H-[Sar][Tle][Dap](Octanoyl)FL-NH2), in data set [1] (setting [4]), the IC50 turned out to be 50 nM. Moreover, in data set [3], the oral bioavailability result is “low” and the pharmacokinetics result is reported as “poor”.
Turning to `C[C@H](NC(=O)c1ccnn1C)C(=O)N1CCC(CCCc2cc(N)c3nonc3n2)CC1` [compound 35, (S)-N-(1-(4-(3-(7-amino-[1,2,5]oxadiazolo[3,4-b]pyridin-5-yl)propyl)pip-eridin-1-yl)-1-oxopropan-2-yl)-1-methyl-1H-pyrazole-5-carboxamide], the “GOAT inhibition in vitro (in words)” value in data set [1] was “significantly impaired”. The “IC50 (GOAT, membrane fraction, in-house)” value in data set [1] (setting [4]) was “inactive”.
On to `CCCCCCCC(=O)NC[C@H](NC(=O)[C@@H](NC(=O)CNC)C(C)(C)C)C(=O)N[C@@H](Cc1ccccc1)C(N)=O` [compound 8] (H-[Sar][Tle][Dap](Octanoyl)F-NH2), for which the IC50 in data set [1] (setting [4]) was 14 nM.
As to `CCCCCCCC(=O)NC[C@H](NC(=O)[C@@H](NC(=O)CNC)C(C)(C)C)C(=O)N[C@@H](Cc1ccccc1)C(=O)N[C@@H](CC(C)C)C(=O)N[C@@H](CO)C(N)=O` [compound 14] (H-[Sar][Tle][Dap](Octanoyl)FLS-NH2), the half-maximal inhibitory concentration (IC50) in data set [1] (setting [4]) was found to be 62 nM.
`O=C(O)c1ccc2oc(SCc3ccc(Cl)cc3Cl)nc2c1` [compound 7]: the “mode of GOAT inhibition” value in data set [2] is given as “competed at the CoA site on GOAT”.
Regarding `CCCCOCC(=O)N1CCC(/C=C\c2c(C)nc3nonc3c2N)CC1` [compound 25, (Z)-1-(4-(2-(7-amino-5-methyl-[1,2,5]oxadiazolo[3,4-b]pyridin-6-yl)vinyl)piperidin-1-yl)-2-butoxyethan-1-one], the “GOAT inhibition in vitro (in words)” value in data set [1] is recorded as “significantly impaired”. Further, the IC50 in data set [1] (setting [4]) was determined as 440 nM.
“N-(((3S,6S,9S)-9-(2-aminoacetamido)-3-benzyl-10,10-dimethyl-5,8-dioxo-1,11-dioxa-4,7-diazacyclopentadec-13-en-6-yl)methyl)octanamide [17a]”: in data set [1] (reaction rates at varied substrate concentrations, fixed inhibitor concentration), the “mode of GOAT inhibition” value is reported as “competing for the peptide substrate”.

The record behind these values is paper PMC8709388, “In Search of Small Molecules That Selectively Inhibit MBOAT4” (Molecules, 2021).
